Consider three molecules from patent publication US20230398130A1, “METHODS AND COMPOSITIONS FOR DIFFERENTIATING STEM CELLS” (Massachusetts Institute of Technology, priority 2020, published 2023).

The subject of assay [1] is ISC-enriched organoids. The assay can be described thus: Primary screen, 384-well 2.5-D organoid differentiation (ENR+CD, 6 days): basal lysozyme secretion (LYZ.NS). The class given is cell-based, murine. Conditions: for Dose.FC.LYZ.NS: FC vs plate median; for Z.LYZ.NS: standard z score of FC. The source says:
(§1) High-throughput screening.

In assay [2] the test system is ISC-enriched organoids. Kind of assay: Primary screen, 384-well 2.5-D organoid differentiation (ENR+CD, 6 days): carbachol-induced lysozyme secretion (LYZ.S). The class given is cell-based, murine. Conditions: FC vs plate median.
From the text: as §1

Assay [3] has as its system ISC-enriched organoids. The assay can be described thus: Primary screen, 384-well 2.5-D organoid differentiation (ENR+CD, 6 days, Target Selective Inhibitor Library, vs whole-plate median): ATP (CellTiter-Glo 3D, CTG). Conditions: for Dose.FC.CTG: FC vs plate median; for Z.CTG: standard z score of FC. For orientation: ATP-based viability assays read luminescence as a measure of living cells.

[4] abbreviates: primary screen, dose 0.08 uM, ENR+CD 6 days.
Where [5] appears, read: primary screen, dose 0.40 uM, ENR+CD 6 days.
[6] abbreviates: primary screen, dose 2.00 uM, ENR+CD 6 days.
Setting [7] is: primary screen, dose 10.00 uM, ENR+CD 6 days.

`O=C(Oc1cc(S(=O)(=O)c2ccccc2)ccc1[N+](=O)[O-])c1ccc(Cl)cc1` [BTB06584]: the Dose.FC.LYZ.NS in assay [1] (setting [4]) is 0.091 log 2 fold change; in assay [1] (setting [5]), 0.025 log 2 fold change; in assay [1] (setting [6]), 0.024 log 2 fold change; in assay [1] (setting [7]), −0.031 log 2 fold change. Besides, the Z.LYZ.NS is reported as 0.795 in assay [1] (primary screen, dose 0.08 uM); 0.214 in assay [1] (primary screen, dose 0.40 uM); 0.206 in assay [1] (primary screen, dose 2.00 uM); −0.268 in assay [1] (primary screen, dose 10.00 uM). The Dose.FC.LYZ.S in assay [2] (setting [4]) is on record as 0.222 log 2 fold change; in assay [2] (setting [5]), 0.042 log 2 fold change; in assay [2] (setting [6]), 0.039 log 2 fold change; in assay [2] (setting [7]) it was 0.019 log 2 fold change. Also, the Dose.FC.CTG in assay [3] (setting [4]) is 0.275 log 2 fold change; in assay [3] (setting [5]), 0.288 log 2 fold change; in assay [3] (setting [6]) it was −0.180 log 2 fold change; in assay [3] (setting [7]), 0.199 log 2 fold change. For the same molecule, the Z.CTG in assay [3] (primary screen, dose 0.08 uM) is recorded as 0.657; in assay [3] (primary screen, dose 0.40 uM), 0.688; in assay [3] (primary screen, dose 2.00 uM), −0.431; in assay [3] (primary screen, dose 10.00 uM) it was 0.475.
As for `O=C(Nc1cccc(Nc2ncc(Br)c(NCCc3cnc[nH]3)n2)c1)N1CCCC1` [BX-912], the Dose.FC.LYZ.NS is on record as 0.010 log 2 fold change in assay [1] (Dose 0.08 uM, ENR+CD, 6 days); 0.017 log 2 fold change in assay [1] (Dose 0.40 uM, ENR+CD, 6 days); −0.089 log 2 fold change in assay [1] (Dose 2.00 uM, ENR+CD, 6 days); −0.196 log 2 fold change in assay [1] (Dose 10.00 uM, ENR+CD, 6 days). The Z.LYZ.NS in assay [1] (Dose 0.08 uM) is on record as 0.090; in assay [1] (Dose 0.40 uM) it was 0.151; in assay [1] (Dose 2.00 uM), −0.771; in assay [1] (Dose 10.00 uM), −1.704. Moreover, the Dose.FC.LYZ.S in assay [2] (Dose 0.08 uM, ENR+CD, 6 days) is 0.038 log 2 fold change; in assay [2] (Dose 0.40 uM, ENR+CD, 6 days), 0.042 log 2 fold change; in assay [2] (Dose 2.00 uM, ENR+CD, 6 days), −0.161 log 2 fold change; in assay [2] (Dose 10.00 uM, ENR+CD, 6 days), −0.272 log 2 fold change. In addition, the Dose.FC.CTG is on record as 0.043 log 2 fold change in assay [3] (Dose 0.08 uM, ENR+CD, 6 days); 0.054 log 2 fold change in assay [3] (Dose 0.40 uM, ENR+CD, 6 days); −0.246 log 2 fold change in assay [3] (Dose 2.00 uM, ENR+CD, 6 days); −0.397 log 2 fold change in assay [3] (Dose 10.00 uM, ENR+CD, 6 days). Also, the Z.CTG in assay [3] (Dose 0.08 uM) is given as 0.103; in assay [3] (Dose 0.40 uM) it was 0.129; in assay [3] (Dose 2.00 uM), −0.587; in assay [3] (Dose 10.00 uM) it was −0.949.
With `CNC(=O)[C@H](Cc1ccccc1)NC(=O)[C@H](CC(C)C)[C@H](CSc1cccs1)C(=O)NO` [Batimastat (BB-94)], the Dose.FC.LYZ.NS in assay [1] (setting [4]) was −0.003 log 2 fold change; in assay [1] (setting [5]), 0.005 log 2 fold change; in assay [1] (setting [6]) it was 0.081 log 2 fold change; in assay [1] (setting [7]), −0.075 log 2 fold change. Also, the Z.LYZ.NS in assay [1] (primary screen, dose 0.08 uM) is given as −0.025; in assay [1] (primary screen, dose 0.40 uM) it was 0.042; in assay [1] (primary screen, dose 2.00 uM), 0.707; in assay [1] (primary screen, dose 10.00 uM), −0.649. For the same molecule, the Dose.FC.LYZ.S is given as 0.053 log 2 fold change in assay [2] (setting [4]), 0.028 log 2 fold change in assay [2] (setting [5]), 0.056 log 2 fold change in assay [2] (setting [6]) and −0.107 log 2 fold change in assay [2] (setting [7]). Moreover, the Dose.FC.CTG in assay [3] (setting [4]) is 0.035 log 2 fold change; in assay [3] (setting [5]), −0.095 log 2 fold change; in assay [3] (setting [6]) it was −0.049 log 2 fold change; in assay [3] (setting [7]), −0.283 log 2 fold change. In addition, the Z.CTG in assay [3] (primary screen, dose 0.08 uM) is reported as 0.084; in assay [3] (primary screen, dose 0.40 uM) it was −0.226; in assay [3] (primary screen, dose 2.00 uM) it was −0.117; in assay [3] (primary screen, dose 10.00 uM), −0.676.
